Source: US9994555B2, “Chromenone inhibitors of monocarboxylate transporters” (THE SCRIPPS RESEARCH INSTITUTE, priority 2015, dated 2018)
pEC50: −log10 of the molar value.

Test system: Raji (Burkitt's) lymphoma cells
Assay: MTT assay for 4-day viability of Raji (Burkitt's) lymphoma cells
Format: cell-based
Details: Homo sapiens, 96 h, Raji (Burkitt's) lymphoma cells highly expressing MCT1, estimated EC50 given as bin, read-out: approximate potency (EC50)
Excerpt: Specific Examples of compounds of the invention, with estimated EC50 values determined using an MTT assay for 4-day viability of Raji (Burkitt's) lymphoma cells, a cell line known to highly express MCT1 and to be sensitive to small molecule MCT inhibitors,^4 are shown in Table 8. Assay protocols follow those described in the literature.^4 Other assays that are not described here but that are standard in the field, such as an assay for competitive inhibition of transport of radiolabeled lactic acid, an MCT substrate, may also be useful in establishing mechanism of action of these compounds.

Row | Structure (SMILES) | pEC50
1 | O=c1cc(-c2ccccc2)oc2cc(OCc3cccc4ccccc34)cc(OCCCCO)c12 [Example 29, 5-(4-hydroxybutoxy)-7-(naphthalen-1-ylmethoxy)-2-phenyl-4H-chromen-4-one] | 5.00 to 6.00
2 | CC(C)c1cc(=O)c2c(CCCCO)cc(OCc3cccc4ccccc34)cc2o1 [Example 36, 5-(4-hydroxybutyl)-2-isopropyl-7-(naphthalen-1-ylmethoxy)-4H-chromen-4-one] | 5.00 to 6.00
3 | Cc1cc(=O)c2c(OCCCO)cc(OCc3cccc4ccccc34)cc2o1 [Example 2, 5-(3-hydroxypropoxy)-2-methyl-7-(naphthalen-1-ylmethoxy)-4H-chromen-4-one] | 5.00 to 6.00
4 | O=c1cc(-c2ccccc2)oc2cc(Oc3ccnc4ccccc34)cc(OCCCO)c12 [Example 26, 5-(3-hydroxypropoxy)-2-phenyl-7-(quinolin-4-yloxy)-4H-chromen-4-one] | 5.00 to 6.00
5 | CC(C)c1cc(=O)c2c(NCCCO)cc(OCc3cccc4ccccc34)cc2o1 [Example 48, 5-((3-hydroxypropyl)amino)-2-isopropyl-7-(naphthalen-1-ylmethoxy)-4H-chromen-4-one] | 5.00 to 6.00
6 | CC(C)c1cc(=O)c2c(CCCCCO)cc(OCc3cccc4ccccc34)cc2o1 [Example 37, 5-(5-hydroxypentyl)-2-isopropyl-7-(naphthalen-1-ylmethoxy)-4H-chromen-4-one] | 5.00 to 6.00
7 | CC(C)c1cc(=O)c2c(-c3cc(CO)ccc3Cl)cc(OCc3cccc4ccccc34)cc2o1 [Example 39, 5-(2-chloro-5-(hydroxymethyl)phenyl)-2-isopropyl-7-(naphthalen-1-ylmethoxy)-4H-chromen-4-one] | 5.00 to 6.00
8 | CC(C)c1cc(=O)c2c(OCCCCO)cc(COc3cccc4ccccc34)cc2o1 [Example 35, 5-(4-hydroxybutoxy)-2-isopropyl-7-((naphthalen-1-yloxy)methyl)-4H-chromen-4-one] | 5.00 to 6.00
9 | CC(C)c1cc(=O)c2c(-c3cccc(CO)c3F)cc(OCc3cccc4ccccc34)cc2o1 [Example 41, 5-(2-fluoro-3-(hydroxymethyl)phenyl)-2-isopropyl-7-(naphthalen-1-ylmethoxy)-4H-chromen-4-one] | ≤ 5.00
10 | O=c1cc(-c2ccccc2)oc2cc(Oc3ccnc4ccccc34)cc(OCC(O)CO)c12 (stereo not drawn) [Example 27, 5-(2,3-dihydroxypropoxy)-2-phenyl-7-(quinolin-4-yloxy)-4H-chromen-4-one] | ≤ 5.00
11 | CC(C)c1cc(=O)c2c(-c3cccc(CCO)c3)cc(OCc3cccc4ccccc34)cc2o1 [Example 38, 5-(3-(2-hydroxyethyl)phenyl)-2-isopropyl-7-(naphthalen-1-ylmethoxy)-4H-chromen-4-one] | 5.00 to 6.00
12 | Cc1cc(=O)c2c(OCC(O)CO)cc(Oc3ccnc4ccccc34)cc2o1 (stereo not drawn) [Example 4, 5-(2,3-dihydroxypropoxy)-2-methyl-7-(quinolin-4-yloxy)-4H-chromen-4-one] | ≤ 5.00
13 | CC(C)c1cc(=O)c2c(NCCCCO)cc(OCc3cccc4ccccc34)cc2o1 [Example 46, 5-((4-hydroxybutyl)amino)-2-isopropyl-7-(naphthalen-1-ylmethoxy)-4H-chromen-4-one] | 5.00 to 6.00
14 | Cc1cc(=O)c2c(OCCCCO)cc(OCc3cccc4ccccc34)cc2o1 [Example 3, 5-(4-hydroxybutoxy)-2-methyl-7-(naphthalen-1-ylmethoxy)-4H-chromen-4-one] | 5.00 to 6.00
15 | CC(C)c1cc(=O)c2c(N3CCC(CO)CC3)cc(OCc3cccc4ccccc34)cc2o1 [Example 50, 5-(4-(hydroxymethyl)piperidin-1-yl)-2-isopropyl-7-(naphthalen-1-ylmethoxy)-4H-chromen-4-one] | 5.00 to 6.00
16 | CC(C)c1cc(=O)c2c(-c3ccccc3CO)cc(OCc3cccc4ccccc34)cc2o1 [Example 44] | ≤ 5.00

Results, then the compound that gave them:

Row | pEC50 | Structure (SMILES)
17 | ≥ 7.00 | CC(C)c1cc(=O)c2c(OCc3ccccc3CO)cc(OCc3ccnc4ccccc34)cc2o1 [Example 24, 5-((2-(hydroxymethyl)benzyl)oxy)-2-isopropyl-7-(quinolin-4-ylmethoxy)-4H-chromen-4-one]
18 | 6.00 to 7.00 | CC(C)c1cc(=O)c2c(OCc3ccccc3CO)cc(OCc3ccc4ncccc4c3)cc2o1 [Example 21, 5-((2-(hydroxymethyl)benzyl)oxy)-2-isopropyl-7-(quinolin-6-ylmethoxy)-4H-chromen-4-one]
19 | 6.00 to 7.00 | CC(C)c1cc(=O)c2c(OCc3ccccc3CO)cc(OCc3cncs3)cc2o1 [Example 18, 5-((2-(hydroxymethyl)benzyl)oxy)-2-isopropyl-7-(thiazol-5-ylmethoxy)-4H-chromen-4-one]
20 | ≥ 7.00 | CC(C)c1cc(=O)c2c(OCc3ccccc3CO)cc(OCc3cccc4cccnc34)cc2o1 [Example 19, 5-((2-(hydroxymethyl)benzyl)oxy)-2-isopropyl-7-(quinolin-8-ylmethoxy)-4H-chromen-4-one]
21 | ≥ 7.00 | CC(C)c1cc(=O)c2c(OCc3ccccc3CO)cc(OCc3cccc(C(F)(F)F)c3)cc2o1 [Example 12, 5-((2-(hydroxymethyl)benzyl)oxy)-2-isopropyl-7-((3-(trifluoromethyl)benzyl)oxy)-4H-chromen-4-one]
22 | 6.00 to 7.00 | CC(C)c1cc(=O)c2c(-c3cccc(CO)c3)cc(Oc3ccnc4ccccc34)cc2o1 [Example 42, 5-(3-(hydroxymethyl)phenyl)-2-isopropyl-7-(quinolin-4-yloxy)-4H-chromen-4-one]
23 | ≥ 7.00 | CC(C)c1cc(=O)c2c(OCc3ccccc3CO)cc(OCc3cccnc3C(F)(F)F)cc2o1 [Example 10, 5-((2-(hydroxymethyl)benzyl)oxy)-2-isopropyl-7-((2-(trifluoromethyl)pyridin-3-yl)methoxy)-4H-chromen-4-one]
24 | 6.00 to 7.00 | CC(C)c1cc(=O)c2c(OCc3ccccc3CO)cc(OCc3ccncc3)cc2o1 [Example 15, 5-((2-(hydroxymethyl)benzyl)oxy)-2-isopropyl-7-(pyridin-4-ylmethoxy)-4H-chromen-4-one]
25 | 6.00 to 7.00 | CC(C)c1cc(=O)c2c(OCCCO)cc(OCc3ccnc4ccccc34)cc2o1 [Example 6, 5-(3-hydroxypropoxy)-2-isopropyl-7-(quinolin-4-ylmethoxy)-4H-chromen-4-one]
26 | ≥ 7.00 | CC(C)c1cc(=O)c2c(OCc3ccccc3CO)cc(OCc3cccnc3)cc2o1 [Example 14, 5-((2-(hydroxymethyl)benzyl)oxy)-2-isopropyl-7-(pyridin-3-ylmethoxy)-4H-chromen-4-one]
27 | 6.00 to 7.00 | CC(C)c1cc(=O)c2c(OCCCO)cc(OCc3cccc4ccccc34)cc2o1 [Example 7, 5-(3-hydroxypropoxy)-2-isopropyl-7-(naphthalen-1-ylmethoxy)-4H-chromen-4-one]
28 | 6.00 to 7.00 | CC(C)c1cc(=O)c2c(OCc3ccccc3CO)cc(Oc3cc(C(F)(F)F)ccn3)cc2o1 [Example 32, 5-((2-(hydroxymethyl)benzyl)oxy)-2-isopropyl-7-((4-(trifluoromethyl)pyridin-2-yl)oxy)-4H-chromen-4-one]
29 | ≥ 7.00 | CC(C)c1cc(=O)c2c(OCc3ccccc3CO)cc(Oc3ncccc3C(F)(F)F)cc2o1 [Example 11, 5-((2-(hydroxymethyl)benzyl)oxy)-2-isopropyl-7-((3-(trifluoromethyl)pyridin-2-yl)oxy)-4H-chromen-4-one]
30 | 6.00 to 7.00 | CC(C)c1cc(=O)c2c(-c3cccc(CO)c3)cc(OCc3cccc4ccccc34)cc2o1 [Example 43, 5-(3-(hydroxymethyl)phenyl)-2-isopropyl-7-(naphthalen-1-ylmethoxy)-4H-chromen-4-one]
31 | ≥ 7.00 | CC(C)c1cc(=O)c2c(OCc3ccccc3CO)cc(Oc3ccnc4ccccc34)cc2o1 [Example 9, 5-((2-(hydroxymethyl)benzyl)oxy)-2-isopropyl-7-(quinolin-4-yloxy)-4H-chromen-4-one]
32 | ≥ 7.00 | CC(C)c1cc(=O)c2c(OCc3ccccc3CO)cc(OCc3cncc(C(F)(F)F)c3)cc2o1 [Example 16, 5-((2-(hydroxymethyl)benzyl)oxy)-2-isopropyl-7-((5-(trifluoromethyl)pyridin-3-yl)methoxy)-4H-chromen-4-one]
33 | ≥ 7.00 | CC(C)c1cc(=O)c2c(OCc3ccccc3CO)cc(Oc3ccncc3C(F)(F)F)cc2o1 [Example 17, 5-((2-(hydroxymethyl)benzyl)oxy)-2-isopropyl-7-((3-(trifluoromethyl)pyridin-4-yl)oxy)-4H-chromen-4-one]
